In US8288381B2, “N-9 substituted purine compounds, compositions and methods of use” (Genentech, Inc., priority 2009, dated 2012):

What was measured:
[1] = biological target: mTOR enzyme (mTOR(1360-2549)+GBL) (Homo sapiens, UniProt P42345); test: In vitro mTOR kinase assay (TR-FRET); format: biochemical; conditions: Ki apparent, Morrison ATP-competitive tight binding equation; 8 uM ATP, 0.25 nM mTOR+GBL; read-out: activity level (Ki) in the mTOR kinase assay
Experimental: The kinase activity of mTOR enzyme is assessed by incubating purified recombinant enzyme (mTOR(1360-2549)+GBL, prepared in-house) in a reaction mixture containing ATP, MnCl2, and a fluorescently labeled mTOR substrate, e.g., GFP-4E-BP1 (Invitrogen, product #PR8808A). The reaction is stopped by an addition of a Terbium-labeled phospho-specific antibody, e.g., Tb-labeled anti-p4E-BP1 T37/T46, (Invitrogen, product #PR8835A), EDTA, and TR-FRET buffer solution (Invitrogen, Product #PR3756B). Product formation is detected by way of time-resolved fluorescence resonance energy transfer (TR-FRET), which occurs when the phosphorylated substrate and labeled antibody are in close proximity due to phospho-specific binding. Enzymatic activity is measured as an increase in TR-FRET signal using a Perkin Elmer Envision plate reader. The assay is performed in a 384-well Proxiplate Plus (Perkin Elmer. Product #6008269) using the following protocol:
Compound activity is tested in 10 point dose curves starting at the highest final concentration of 10 uM. They are serially diluted in 100% DMSO prior to further dilution with assay buffer. The reaction mixture (8 uls) containing 0.25 nM mTOR+GBL enzyme, 400 nM GFP-4E-BP1, 8 uM ATP, 50 mM Hepes pH 7.5, 0.01% Tween 20, 10 mM MnCl2, 1 mM EGTA, 1 mM DTT, 1% DMSO (+/−compound) is incubated at room temperature for 30 minutes. 8 μL of solution containing 2 nM Tb-anti-p4E-BP1 antibody & 10 mM EDTA diluted TR-FRET buffer is then added and incubated for 30 minutes to stop the reaction. The plate is scanned with the Envision plate reader. Ki values are calculated in Assay Explorer using the Morrison ATP-competitive tight binding equation for Ki apparent determination.

[2] = system: AKT serine-473 phosphorylation in PC-3 cells; test: In vitro phospho-AKT serine 473 cellular assay; format: cell-based; conditions: Homo sapiens, 0.5 h; PC-3 cells stimulated with EGF, 30 minutes compound incubation; read-out: EC50 activity level (50% decrease of S473 AKT phosphorylation)
Experimental: The assay measures a test compound's inhibition of AKT serine-473 phosphorylation in human prostate adenocarcinoma derived PC-3 (ATCC CRL-1435) cells that have been stimulated with epidermal growth factor (EGF).
The PC-3 cell line is maintained in RPMI1640 media supplemented with 10% FBS, 2 mM Glutamine, and 10 mM HEPES pH 7.4 at 37° C. in a 5% CO2 humidified incubator.
Cells are seeded in 384-well plates at 7,000 cells/well in 50 μl growth media. After 24 hours, growth media is removed and replaced with RPMI1640 containing no FBS. Cells are treated with 10 concentrations of test compounds or DMSO alone for controls (final DMSO concentration 0.5%) and incubated at 37° C. for 30 minutes. Cells are then stimulated for 10 minutes with 100 ng/ml EGF (final concentration). One column of controls is not stimulated with EGF to observe the signal ratio between stimulated and non-stimulated cells. After 10 minutes, compounds and stimulation media are removed and replaced with 25 μl lysis buffer containing protease inhibitors and phosphatase inhibitors. This buffer contains detergent to bring about cellular disruption. […] Following the transfer of lysate to the MSD plate, AKT in the lysate is captured on the coated antibody by incubation on a shaker at 4° C. for 16 hours. Following the capture step the plate is washed and then incubated for two hours with an antibody to S473 phosphorylated AKT which is conjugated with a Sulfo-Tag. This tag gives a signal when in proximity to the electrode on the base of the MSD plate. Binding the tagged antibody to the captured protein allow detection on a MSD reader.
The EC50 is defined as the concentration at which a given compound achieves 50% decrease of the measured levels of S473 AKT phosphorylation. EC50 values are calculated using MDL Assay Explorer 3.0.1.8 fitting a sigmoidal curve with a variable slope.

PC3 cells = test: In vitro cell proliferation assay; format: cell-based; conditions: Homo sapiens, PC-3; with PC3 cells
Experimental: Efficacy of Formula I compounds were measured by a cell proliferation assay employing the following protocol:
1. An aliquot of 20 μl of cell culture containing about 10^3 cells (PC3 or MDAMB361.1) in medium was deposited in each well of a 384-well, opaque-walled plate.
2. Control wells were prepared containing medium and without cells; Cells were allowed to settle overnight.
3. The compound was added to the experimental wells and incubated for 3 days.
4. The plates were equilibrated to room temperature for approximately 30 minutes.
5. A volume of CellTiter-Glo Reagent equal to the volume of cell culture medium present in each well was added.
6. The contents were mixed for 2 minutes on an orbital shaker to induce cell lysis.
7. The plate was incubated at room temperature for 20 minutes to stabilize the luminescence signal.
8. Luminescence was recorded and reported in graphs as RLU=relative luminescence units.
Alternatively, cells were seeded at optimal density in a 96 well plate and incubated for 4 days in the presence of test compound. Alamar Blue™ was subsequently added to the assay medium, and cells were incubated for 6 h before reading at 544 nm excitation, 590 nm emission. IC50 values were calculated using a sigmoidal dose response curve fit.

mTOR enzyme (mTOR(1360-2549)+GBL), sequence (P42345 1360-2549): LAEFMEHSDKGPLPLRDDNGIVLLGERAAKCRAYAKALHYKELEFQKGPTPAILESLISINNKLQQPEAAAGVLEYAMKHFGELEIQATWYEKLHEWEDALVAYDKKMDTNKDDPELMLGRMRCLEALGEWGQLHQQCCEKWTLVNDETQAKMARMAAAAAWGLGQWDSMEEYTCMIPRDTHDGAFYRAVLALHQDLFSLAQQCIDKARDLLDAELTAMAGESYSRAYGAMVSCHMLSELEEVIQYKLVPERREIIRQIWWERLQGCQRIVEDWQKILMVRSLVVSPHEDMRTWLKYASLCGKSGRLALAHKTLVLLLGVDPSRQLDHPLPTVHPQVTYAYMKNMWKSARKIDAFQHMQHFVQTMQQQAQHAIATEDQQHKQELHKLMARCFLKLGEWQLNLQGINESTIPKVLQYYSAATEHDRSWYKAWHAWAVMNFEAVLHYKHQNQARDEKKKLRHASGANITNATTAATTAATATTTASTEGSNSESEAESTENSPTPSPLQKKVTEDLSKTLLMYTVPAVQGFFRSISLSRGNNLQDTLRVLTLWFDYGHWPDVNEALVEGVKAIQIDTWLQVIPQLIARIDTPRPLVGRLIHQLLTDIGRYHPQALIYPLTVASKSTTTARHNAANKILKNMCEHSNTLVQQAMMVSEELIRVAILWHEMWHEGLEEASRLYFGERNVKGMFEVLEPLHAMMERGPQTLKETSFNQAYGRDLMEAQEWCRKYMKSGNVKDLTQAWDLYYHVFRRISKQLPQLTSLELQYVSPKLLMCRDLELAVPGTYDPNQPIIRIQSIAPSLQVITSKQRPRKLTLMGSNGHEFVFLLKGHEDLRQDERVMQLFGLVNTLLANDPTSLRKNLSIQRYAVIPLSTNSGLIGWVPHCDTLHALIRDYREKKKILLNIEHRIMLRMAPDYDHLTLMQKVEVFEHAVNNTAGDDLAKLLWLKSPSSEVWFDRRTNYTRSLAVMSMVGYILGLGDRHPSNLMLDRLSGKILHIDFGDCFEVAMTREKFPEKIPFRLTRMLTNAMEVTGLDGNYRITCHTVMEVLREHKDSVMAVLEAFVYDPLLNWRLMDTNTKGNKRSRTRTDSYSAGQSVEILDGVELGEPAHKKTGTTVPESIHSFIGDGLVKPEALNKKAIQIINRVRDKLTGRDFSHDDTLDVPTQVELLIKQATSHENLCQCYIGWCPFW
mTOR enzyme (mTOR(1360-2549)+GBL), sequence (Q9BVC4 whole entry partner): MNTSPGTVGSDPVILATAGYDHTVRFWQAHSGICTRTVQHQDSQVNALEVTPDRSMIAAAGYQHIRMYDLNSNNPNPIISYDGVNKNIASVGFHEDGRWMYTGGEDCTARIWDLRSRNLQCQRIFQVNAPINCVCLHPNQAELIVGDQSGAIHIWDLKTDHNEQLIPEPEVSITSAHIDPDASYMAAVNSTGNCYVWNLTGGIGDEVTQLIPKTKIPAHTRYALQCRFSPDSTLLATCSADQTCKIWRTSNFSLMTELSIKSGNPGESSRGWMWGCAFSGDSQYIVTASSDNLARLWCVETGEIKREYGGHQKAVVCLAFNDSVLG

SMILES	Ki [1] [nM]	EC50 [2] [nM]	IC50 (PC3 cells) [nM]
CCNC(=O)Nc1ccc(-c2nc(N3CCOC[C@@H]3C)c3nc(C4(O)CCOCC4)n(CC)c3n2)cc1 [Compound 104, (S)-1-ethyl-3-(4-(9-ethyl-8-(4-hydroxytetrahydro-2H-pyran-4-yl)-6-(3-methylmorpholino)-9H-purin-2-yl)phenyl)urea]	4	10	115
CCNC(=O)Nc1ccc(-c2nc(N3CCOC[C@@H]3C)c3nc(C4(O)COC4)n(CC)c3n2)cc1 [Compound 111, (S)-1-ethyl-3-(4-(9-ethyl-8-(3-hydroxyoxetan-3-yl)-6-(3-methylmorpholino)-9H-purin-2-yl)phenyl)urea]	4	4	269
CCn1c(C2CC2)nc2c(N3CCOC[C@@H]3C)nc(-c3ccc(Nc4cccc(=O)[nH]4)cc3)nc21 [Compound 112, (S)-6-(4-(8-cyclopropyl-9-ethyl-6-(3-methylmorpholino)-9H-purin-2-yl)phenylamino)pyridin-2(1H)-one]	6	6	853
CCNC(=O)Nc1ccc(-c2nc(N3CCOC[C@@H]3C)c3nc(C4(O)COC4)n(C)c3n2)cc1 [Compound 101, (S)-1-ethyl-3-(4-(8-(3-hydroxyoxetan-3-yl)-9-methyl-6-(3-methylmorpholino)-9H-purin-2-yl)phenyl)urea]	7	30	282
CCNC(=O)Nc1ccc(-c2nc(N3CCOC[C@@H]3C)c3nc(-c4cncnc4)n(CC)c3n2)cc1 [Compound 107, (S)-1-ethyl-3-(4-(9-ethyl-6-(3-methylmorpholino)-8-(pyrimidin-5-yl)-9H-purin-2-yl)phenyl)urea]	3	7	112
CCNC(=O)Nc1ccc(-c2nc(N3CCOC[C@@H]3C)c3nc(C4(O)CNC4)n(C)c3n2)cc1 [Compound 105, (S)-1-ethyl-3-(4-(8-(3-hydroxyazetidin-3-yl)-9-methyl-6-(3-methylmorpholino)-9H-purin-2-yl)phenyl)urea]	74	–	–
CCNC(=O)Nc1ccc(-c2nc(N3CCOC[C@@H]3C)c3nc(C4(F)CCOCC4)n(CC)c3n2)cc1 [Compound 110, (S)-1-ethyl-3-(4-(9-ethyl-8-(4-fluorotetrahydro-2H-pyran-4-yl)-6-(3-methylmorpholino)-9H-purin-2-yl)phenyl)urea]	5	5	163
CCNC(=O)Nc1ccc(-c2nc(N3CCOC[C@@H]3C)c3nc(C4CC4)n(CC)c3n2)cc1 [Compound 106, (S)-1-(4-(8-cyclopropyl-9-ethyl-6-(3-methylmorpholino)-9H-purin-2-yl)phenyl)-3-ethylurea]	8	15	441
CCNC(=O)Nc1ccc(-c2nc(N3CCOC[C@@H]3C)c3nc(C4(O)CCOCC4)n(C)c3n2)cc1 [Compound 103, (S)-1-ethyl-3-(4-(8-(4-hydroxytetrahydro-2H-pyran-4-yl)-9-methyl-6-(3-methylmorpholino)-9H-purin-2-yl)phenyl)urea]	5	29	120
CCNC(=O)Nc1ccc(-c2nc(N3CCOC[C@@H]3C)c3nc(C4(F)COC4)n(C)c3n2)cc1 [Compound 108, (S)-1-ethyl-3-(4-(8-(3-fluorooxetan-3-yl)-9-methyl-6-(3-methylmorpholino)-9H-purin-2-yl)phenyl)urea]	3	9	232
CCNC(=O)Nc1ccc(-c2nc(N3CCOC[C@@H]3C)c3nc(C4(F)COC4)n(CC)c3n2)cc1 [Compound 109, (S)-1-ethyl-3-(4-(8-(3-fluorooxetan-3-yl)-9-ethyl-6-(3-methylmorpholino)-9H-purin-2-yl)phenyl)urea]	3	8	218
CCNC(=O)Nc1ccc(-c2nc(N3CCOC[C@@H]3C)c3nc(C4CC4)n(C)c3n2)cc1 [Compound 102, (S)-1-(4-(8-cyclopropyl-9-methyl-6-(3-methylmorpholino)-9H-purin-2-yl)phenyl)-3-ethylurea]	8	37	207
CCn1c(C2CC2)nc2c(N3CCOC[C@@H]3C)nc(-c3ccc(NC(=O)NC4COC4)cc3)nc21 [Compound 113, (S)-1-(4-(8-cyclopropyl-9-ethyl-6-(3-methylmorpholino)-9H-purin-2-yl)phenyl)-3-(oxetan-3-yl)urea]	8	8	1700
